From the NIST ThermoML archive (doi:10.1021/je700260f)

Details: Liquid, Vibrating tube method

FC(C(F)(F)F)C(F)(F)F [1,1,1,2,3,3,3-heptafluoropropane]
Details | mass density [kg/m3]
323.14 K, 26341 kPa | 1449.9
323.14 K, 26367 kPa | 1450.1
323.14 K, 26395 kPa | 1450.2
323.14 K, 26427 kPa | 1450.3
323.14 K, 26451 kPa | 1450.5
323.14 K, 26475 kPa | 1450.5
323.14 K, 26513 kPa | 1450.7
323.14 K, 26548 kPa | 1450.8
323.14 K, 26575 kPa | 1450.8
323.14 K, 26605 kPa | 1451
323.14 K, 26630 kPa | 1451.2
323.14 K, 26654 kPa | 1451.3
323.14 K, 26689 kPa | 1451.4
323.14 K, 26725 kPa | 1451.6
323.14 K, 26749 kPa | 1451.6
323.14 K, 26779 kPa | 1451.8
323.14 K, 26810 kPa | 1451.9
323.14 K, 26834 kPa | 1451.9
323.14 K, 26866 kPa | 1452.2
323.14 K, 26907 kPa | 1452.2
323.14 K, 26931 kPa | 1452.3
323.14 K, 26964 kPa | 1452.5
323.14 K, 26991 kPa | 1452.7
323.14 K, 27019 kPa | 1452.7
323.14 K, 27049 kPa | 1452.9
323.14 K, 27086 kPa | 1452.9
323.14 K, 27111 kPa | 1453.1
323.14 K, 27141 kPa | 1453.2
323.14 K, 27170 kPa | 1453.4
323.14 K, 27208 kPa | 1453.4
323.14 K, 27239 kPa | 1453.6
323.14 K, 27261 kPa | 1453.7
323.14 K, 27301 kPa | 1453.9
323.14 K, 27337 kPa | 1453.9
323.14 K, 27364 kPa | 1454.2
323.14 K, 27407 kPa | 1454.4
323.14 K, 27446 kPa | 1454.5
323.14 K, 29221 kPa | 1461.5
323.14 K, 29254 kPa | 1461.6
323.14 K, 29283 kPa | 1461.7
323.14 K, 29320 kPa | 1461.9
323.14 K, 29357 kPa | 1462
323.14 K, 29386 kPa | 1462.2
323.14 K, 29420 kPa | 1462.2
323.14 K, 29450 kPa | 1462.4
323.14 K, 29481 kPa | 1462.5
323.14 K, 29512 kPa | 1462.7
323.14 K, 29551 kPa | 1462.8
323.14 K, 29581 kPa | 1462.9
323.14 K, 29617 kPa | 1463.1
323.14 K, 29647 kPa | 1463.3
323.14 K, 29673 kPa | 1463.3
323.14 K, 29712 kPa | 1463.4
323.14 K, 30912 kPa | 1468
323.14 K, 30939 kPa | 1468.2
323.14 K, 30970 kPa | 1468.1
323.14 K, 31016 kPa | 1468.3
323.14 K, 31057 kPa | 1468.4
323.14 K, 31085 kPa | 1468.6
323.14 K, 31126 kPa | 1468.7
323.14 K, 31158 kPa | 1468.9
323.14 K, 31190 kPa | 1468.9
323.14 K, 31227 kPa | 1469.2
323.14 K, 31260 kPa | 1469.2
323.14 K, 31289 kPa | 1469.4
323.14 K, 31322 kPa | 1469.5
323.14 K, 31350 kPa | 1469.7
323.14 K, 31393 kPa | 1469.8
323.14 K, 31427 kPa | 1469.8
323.14 K, 31456 kPa | 1469.9
323.14 K, 31496 kPa | 1470.1
323.14 K, 31525 kPa | 1470.2
323.14 K, 31560 kPa | 1470.3
323.14 K, 31593 kPa | 1470.5
323.14 K, 31631 kPa | 1470.6
323.14 K, 31664 kPa | 1470.7
323.14 K, 31692 kPa | 1470.8
323.14 K, 31727 kPa | 1470.8
323.14 K, 31759 kPa | 1471.1
323.14 K, 31798 kPa | 1471.2
323.14 K, 31833 kPa | 1471.3
323.14 K, 31867 kPa | 1471.5
323.14 K, 31900 kPa | 1471.6
323.14 K, 31935 kPa | 1471.8
323.14 K, 31970 kPa | 1471.9
323.14 K, 32005 kPa | 1472.1
323.14 K, 32035 kPa | 1472.1
323.14 K, 32074 kPa | 1472.2
323.14 K, 32106 kPa | 1472.4
323.14 K, 32145 kPa | 1472.5
323.14 K, 32183 kPa | 1472.7
323.14 K, 32213 kPa | 1472.9
323.14 K, 32256 kPa | 1472.9
323.14 K, 32290 kPa | 1473
323.14 K, 32334 kPa | 1473.2
323.14 K, 32359 kPa | 1473.2
323.14 K, 32392 kPa | 1473.5
323.14 K, 32426 kPa | 1473.5
323.14 K, 32453 kPa | 1473.6
323.14 K, 32494 kPa | 1473.7
323.14 K, 32530 kPa | 1473.9
323.14 K, 32562 kPa | 1474.1
323.14 K, 32595 kPa | 1474.2
323.14 K, 32625 kPa | 1474.2
323.14 K, 32718 kPa | 1474.5
323.14 K, 32751 kPa | 1474.7
323.14 K, 32788 kPa | 1474.8
323.14 K, 32825 kPa | 1475.1
323.14 K, 32856 kPa | 1475.1
323.14 K, 32888 kPa | 1475.2
323.14 K, 32921 kPa | 1475.3
323.14 K, 32953 kPa | 1475.5
323.14 K, 32985 kPa | 1475.4
323.14 K, 33019 kPa | 1475.7
323.14 K, 33051 kPa | 1475.7
323.14 K, 33084 kPa | 1475.8
323.14 K, 33112 kPa | 1476.1
323.14 K, 33140 kPa | 1476.1
323.14 K, 33174 kPa | 1476.3
323.14 K, 33204 kPa | 1476.4
323.14 K, 33237 kPa | 1476.4
323.14 K, 33283 kPa | 1476.6
323.14 K, 33320 kPa | 1476.7
323.14 K, 33348 kPa | 1476.8
323.14 K, 33380 kPa | 1477
323.14 K, 33409 kPa | 1477.2
323.14 K, 33451 kPa | 1477.2
323.14 K, 33480 kPa | 1477.5
323.14 K, 33527 kPa | 1477.5
323.14 K, 33556 kPa | 1477.6
323.14 K, 33594 kPa | 1477.8
323.14 K, 33624 kPa | 1477.9
323.14 K, 33659 kPa | 1477.9
323.14 K, 33689 kPa | 1477.9
323.14 K, 33733 kPa | 1478.3
323.14 K, 33772 kPa | 1478.3
323.14 K, 33801 kPa | 1478.4
323.14 K, 33844 kPa | 1478.5
323.14 K, 33873 kPa | 1478.6
323.14 K, 33912 kPa | 1478.8
323.14 K, 33947 kPa | 1479
323.14 K, 33988 kPa | 1479.1
323.14 K, 34019 kPa | 1479.2
323.14 K, 34056 kPa | 1479.3
323.14 K, 34088 kPa | 1479.4
323.14 K, 34126 kPa | 1479.7
323.14 K, 34164 kPa | 1479.7
323.14 K, 34203 kPa | 1479.9
323.14 K, 34254 kPa | 1480
323.14 K, 34287 kPa | 1480.1
323.14 K, 34318 kPa | 1480.4
323.14 K, 34333 kPa | 1480.4
323.14 K, 34347 kPa | 1480.4
323.14 K, 34355 kPa | 1480.4
323.14 K, 34365 kPa | 1480.4
323.14 K, 34376 kPa | 1480.5
323.14 K, 34382 kPa | 1480.5
323.15 K, 2690 kPa | 1295.1
323.15 K, 2710 kPa | 1295.4
323.15 K, 2730 kPa | 1295.6
323.15 K, 2750 kPa | 1295.9
323.15 K, 2770 kPa | 1296.1
323.15 K, 2790 kPa | 1296.3
323.15 K, 2810 kPa | 1296.6
323.15 K, 2860 kPa | 1297.2
323.15 K, 3610 kPa | 1305.8
323.15 K, 5700 kPa | 1326.8
323.15 K, 5730 kPa | 1327.1
323.15 K, 5750 kPa | 1327.2
323.15 K, 5780 kPa | 1327.6
323.15 K, 5810 kPa | 1327.8
323.15 K, 5830 kPa | 1328.1
323.15 K, 5860 kPa | 1328.3
323.15 K, 5890 kPa | 1328.7
323.15 K, 5920 kPa | 1329.1
323.15 K, 5940 kPa | 1329
323.15 K, 7941 kPa | 1346.2
323.15 K, 7982 kPa | 1346.7
323.15 K, 8005 kPa | 1346.8
323.15 K, 8337 kPa | 1349.4
323.15 K, 8351 kPa | 1349.6
323.15 K, 8369 kPa | 1349.8
323.15 K, 8474 kPa | 1350.5
323.15 K, 8495 kPa | 1350.7
323.15 K, 8516 kPa | 1350.8
323.15 K, 8532 kPa | 1351
323.15 K, 8553 kPa | 1351.1
323.15 K, 8569 kPa | 1351.3
323.15 K, 8597 kPa | 1351.5
323.15 K, 8616 kPa | 1351.8
323.15 K, 8637 kPa | 1351.8
323.15 K, 8653 kPa | 1351.9
323.15 K, 8674 kPa | 1352.2
323.15 K, 8690 kPa | 1352.3
323.15 K, 8713 kPa | 1352.5
323.15 K, 8731 kPa | 1352.6
323.15 K, 8753 kPa | 1352.6
323.15 K, 8776 kPa | 1352.9
323.15 K, 8792 kPa | 1353.1
323.15 K, 8817 kPa | 1353.1
323.15 K, 8836 kPa | 1353.4
323.15 K, 8858 kPa | 1353.5
323.15 K, 8877 kPa | 1353.6
323.15 K, 8898 kPa | 1353.8
323.15 K, 9724 kPa | 1360
